Patent publication US9914910B2, “Methods of preserving and protecting pancreatic beta cells and treating or preventing diabetes by inhibiting NOX-1” (Eastern Virginia Medical School, priority 2013, dated 2018)

Columns and labels:
[1] = tested on: NOX-1 gene expression in INS-1 cells; assay: PIC-induced NOX-1 gene expression (RT-PCR); format: cell-based, rat; settings: INS-1, PIC 24 hours
Experimental: (§1) Total RNA was isolated using the RNeasy Mini Kit (Qiagen, Valencia, Calif.) and cDNA prepared using MMLV reverse transcriptase (Life Technologies) and random hexamers (Life Technologies). Jump Start Taq polymerase (Life Technologies) was used in PCR reactions. […] RT-PCR reactions were performed in triplicate (CFX96 Bio-Rad, Hercules, Calif.). Taqman primers (Life Technologies) were also used. Data was normalized to the housekeeping gene GAPDH and analyzed using the 2-ΔΔCT method.

[2] = tested on: INS-1 cells; assay: Caspase-3 assay (pro-caspase-3 cleavage) after PIC; format: cell-based, rat; settings: INS-1, PIC 4 hours, up to
Experimental: A. Caspase-3 Assay: Pro-caspase-3 cleavage was measured using a caspase-3 Assay kit (BD Pharmigen, Franklin Lakes, N.J.) per the manufacturer's instructions; fluorescence being measured (SpectraMax, Molecular Devices, Sunnyvale, Calif.) at excitation 380 nm and emission 440 nm (INS-1) or 460 nm (βTC-3, mouse).

[3] = tested on: beta cells; assay: Pro-caspase 3 cleavage after PIC, beta cell survival; format: cell-based; settings: C1 100 nM, ML171 10 μM
Experimental: Loss of beta cell viability in response to inflammatory cytokines was assessed by measurement of caspase 3 activation and quantified microscopy. […] Measured by pro-caspase 3 cleavage (A) or quantified microscopy of YO-PRO-1 stained cells (B). […] Shown are RFU from fluorescent capase3 substrate, ##p<0.01 relative to control; *p<0.05; **p<0.01 relative to PIC (A) and Microscopic apoptotic index ###p<0.001 relative to control; ***p<0.001; **p<0.01 relative to PIC (B).

[4] = tested on: primary human donor islets; assay: Apoptosis by YO-PRO-1 fluorescence microscopy after PIC; format: cell-based; settings: 10 μM ML171
Experimental: Human donor islets were obtained from integrated islet distribution project (http://iidp.coh.org) and cultured in CMRL media (Mediatech, Manassas, Va.). Mouse islets were freshly isolated from 8-week old male C57BL/6J mice (Jackson Laboratory, Bar Harbor, Me.) by common bile duct cannulation and collagenase digestion. Islets were hand picked prior to use.
B. Fluorescence microscopy: Stimulated cells or islets were washed in cold PBS, and incubated for 30 mins at 40 C with cold PBS containing 1 μg/mL propidium iodide and 0.1 μM YO-PRO-1 (Life Technologies). For cell lines, five randomly fields per well were analyzed. For islets, all islets (>1000 um2 in size) were analyzed. Densitometric fluorescent value for YO-PRO-1 (green channel) was normalized to background and expressed proportional to cell occupied area (phase contrast). Images captured across three channels with Axiophot (Zeiss, Jena, Germany) with Axiovision (Zeiss) image analysis.

[5] = tested on: MCP-1, IL-12p40, IL-12 p35, IFNγ gene expression in primary mouse islets; assay: Cytokine-induced target gene expression (real time PCR); format: cell-based; settings: NCTT-1 100 nM, ML171 1 μM
Experimental: as §1
Data is quantitative real time PCR gene expression analysis from triplicate experiments performed in replicate. Fold induction in gene expression over control (non cytokine-treated) islets is graphed.

[6] = tested on: NOX-1 gene expression in βTC-3 cells; assay: PIC-induced NOX-1 gene expression (RT-PCR); format: cell-based, mouse; settings: βTC-3, PIC 24 hours
Experimental: as §1

## CC(=O)c1ccc2c(c1)Nc1ccccc1S2 [ML171, 2-acetylphenothiazine]
[1]
  inhibition of PIC-induced expression of NOX-1 gene: 33%
[2]
  block of PIC-induced activation of caspase-3: up to 100%±3.4%
[3]
  inflammatory cytokine-induced cell death, pro-caspase 3 cleavage: significantly protected
[4]
  reduction of beta-cell apoptosis induced by PICs: 30%±3%
[5]
  induction of gene IFNγ by PIC: attenuated
  induction of gene IL-12 p35 by PIC: attenuated
  induction of gene IL-12p40 by PIC: attenuated
  induction of gene MCP-1 by PIC: attenuated
[6]
  inhibition of PIC-induced expression of NOX-1 gene: 23%
